Measured values from the supplement of paper PMC10307832.

How the values were obtained:
Assay in all cases: relative viability (nuclei count vs DMSO), 5 days (fraction); higher = more cells survive
[1] = compound: COc1cc(Nc2c(C#N)cnc3cc(OCCCN4CCN(C)CC4)c(OC)cc23)c(Cl)cc1Cl [Bosutinib] + CC(=O)Nc1cccc(-n2c(=O)n(C3CC3)c(=O)c3c(Nc4ccc(I)cc4F)n(C)c(=O)c(C)c32)c1 [Trametinib] (partner 0.02 µM)
Outline: (§1)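 Five library-drug doses in √10 steps were combined with a fixed anchor-drug dose, or a single drug was given alone, by pin tool to lung cancer cell lines in 1536-well plates the day after seeding. Nuclei were stained and counted after 5 days. Relative viability is the nuclei count in treated wells over that in vehicle wells, taken as the median of duplicate plates.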

[2] = compound: COc1cc(Nc2c(C#N)cnc3cc(OCCCN4CCN(C)CC4)c(OC)cc23)c(Cl)cc1Cl [Bosutinib] + CC1(C)CCC(c2ccc(Cl)cc2)=C(CN2CCN(c3ccc(C(=O)NS(=O)(=O)c4ccc(N[C@H](CCN5CCOCC5)CSc5ccccc5)c(S(=O)(=O)C(F)(F)F)c4)cc3)CC2)C1 [Navitoclax] (partner 0.5 µM)
Outline: as §1

[3] = compound: COc1cc(Nc2c(C#N)cnc3cc(OCCCN4CCN(C)CC4)c(OC)cc23)c(Cl)cc1Cl [Bosutinib] + CCNC(=O)c1noc(-c2cc(C(C)C)c(O)cc2O)c1-c1ccc(CN2CCOCC2)cc1 [Luminespib] (partner 0.01 µM)
Outline: as §1

[4] = compound: COc1cc(Nc2c(C#N)cnc3cc(OCCCN4CCN(C)CC4)c(OC)cc23)c(Cl)cc1Cl [Bosutinib] + NC(=O)Nc1cc(-c2cccc(F)c2)sc1C(=O)N[C@H]1CCCNC1 [AZD7762] (partner 0.2 µM)
Outline: as §1

[5] = compound: COc1cc(Nc2c(C#N)cnc3cc(OCCCN4CCN(C)CC4)c(OC)cc23)c(Cl)cc1Cl [Bosutinib] + Nc1ncn([C@H]2C[C@H](O)[C@@H](CO)O2)c(=O)n1 [Decitabine] (partner 2 µM)
Outline: as §1

Cell Line	relative viability ([1]; first compound 0.01 µM)	relative viability ([1]; first compound 0.03162 µM)	relative viability ([1]; first compound 0.1 µM)	relative viability ([1]; first compound 1 µM)	relative viability ([2]; first compound 0.01 µM)	relative viability ([2]; first compound 0.03162 µM)	relative viability ([2]; first compound 0.1 µM)	relative viability ([2]; first compound 1 µM)	relative viability ([3]; first compound 0.01 µM)	relative viability ([3]; first compound 0.03162 µM)	relative viability ([3]; first compound 0.1 µM)	relative viability ([3]; first compound 1 µM)	relative viability ([4]; first compound 0.01 µM)	relative viability ([4]; first compound 0.03162 µM)	relative viability ([4]; first compound 0.1 µM)	relative viability ([4]; first compound 1 µM)	relative viability ([5]; first compound 0.01 µM)	relative viability ([5]; first compound 0.03162 µM)	relative viability ([5]; first compound 0.1 µM)	relative viability ([5]; first compound 1 µM)
LC-2-ad	0.953	0.898	0.892	0.859	0.476	0.54	0.52	0.468	1.05	0.924	0.978	1.01	0.88	0.818	0.846	0.755	0.797	0.849	0.875	0.784
LCLC-97TM1	0.201	0.209	0.192	0.179	0.541	0.464	0.595	0.483	0.871	0.744	0.74	0.746	0.31	0.286	0.315	0.191	0.249	0.262	0.215	0.271
LK-2	0.873	0.784	0.667	0.672	0.955	0.943	0.838	0.74	0.199	0.171	0.19	0.209	0.387	0.417	0.461	0.2	0.278	0.363	0.313	0.359
LOU-NH91	0.816	0.805	0.771	0.672	0.755	0.713	0.666	0.391	0.315	0.36	0.38	0.178	0.78	0.757	0.704	0.679	0.818	0.834	0.765	0.653
LU99A	0.53	0.623	0.645	0.517	0.769	0.878	0.782	1.06	0.231	0.258	0.242	0.242	0.376	0.362	0.354	0.287	0.871	0.945	0.961	0.861
LXF-289	0.654	0.721	0.679	0.751	0.938	0.945	0.911	0.966	0.718	0.674	0.702	0.689	1.17	1.14	1.14	1.02	0.338	0.368	0.427	0.449
NCI-H23	0.343	0.344	0.36	0.277	0.904	0.742	0.869	0.764	0.197	0.205	0.204	0.195	0.356	0.205	0.202	0.164	0.35	0.305	0.321	0.287
NCI-H322M	0.486	0.481	0.492	0.361	1.12	1.25	1.28	1.2	0.771	0.754	0.793	0.333	0.609	0.534	0.546	0.52	0.635	0.735	0.616	0.493
NCI-H441	0.509	0.476	0.436	0.379	0.589	0.599	0.411	0.518	0.362	0.425	0.448	0.412	1.3	1.02	1.05	1.09	0.24	0.264	0.279	0.287
NCI-H460	0.17	0.135	0.157	0.0941	1.09	1.11	1.02	0.683	0.0343	0.0293	0.0274	0.0252	0.645	0.576	0.482	0.415	0.5	0.475	0.539	0.419
NCI-H596	0.842	0.765	0.825	0.663	1.06	0.86	1.18	0.785	0.935	0.938	0.959	1.1	1.08	1.07	1.08	0.918	1.03	1.07	1.05	0.876
NCI-H647	0.488	0.483	0.375	0.221	1.25	1.23	1.09	0.82	0.202	0.284	0.159	0.183	0.608	0.516	0.421	0.252	0.442	0.36	0.302	0.386
NCI-H727	0.377	0.359	0.378	0.305	0.429	0.519	0.437	0.291	0.233	0.477	0.55	0.504	0.549	0.59	0.641	0.451	0.848	1.03	0.909	0.764
NCI-H838	0.518	0.483	0.472	0.316	1.14	1.14	1.07	0.637	0.327	0.269	0.385	0.237	0.994	0.914	0.892	0.807	0.467	0.507	0.422	0.411
NCI-H1355	0.474	0.425	0.45	0.419	0.996	0.925	0.96	0.814	0.752	0.691	0.761	0.566	0.801	0.707	0.707	0.534	0.304	0.366	0.352	0.368
